pKi: −log10 of the molar value.
What follows are compounds tested against tau (Homo sapiens, UniProt P10636) (assay: displacement tau binding assay in AD brain homogenates with [^3H]-6). Conditions: Table 1, displacement of [^3H]-6 (0.25 nM).
Description: The frozen human brain samples of Alzheimer's disease (AD) were purchased from Analytic Biological Services Inc. They were postmortem tissue from donors with clinical diagnosis of AD. As much of the white matter was dissected out of the frontal cortex in order to enrich the tissue preparations for gray matter. Brain homogenates of gray matter enriched frontal cortex were prepared by homogenizing the tissue in ice cold Phosphate Buffered Saline (PBS), pH 7.4 at 80 mg wet weight tissue per 1 mL for 45 seconds at 4° C. on setting 16 of Polytron. The homogenate was further diluted with ice cold PBS to 30 mg wet weight tissue per 1 mL and homogenized for an additional minute as described above. Homogenates were aliquoted in 5 ml/tube and store at −70° C. until use. […] Brain homogenates were diluted to 0.5 mg/mL from original 30 mg/mL volume in Assay Buffer, and 200 μl were added to the assay plate for a final concentration of 100 μg wet weight/assay tube. [^3H]-6 was prepared at […] final concentration in Assay Buffer plus 20% DMSO and 25 μl was added to the assay plate for final assay concentration of 0.25 nM. The assay plate was incubated at room temperature (25° C.) for 90 minutes. […] Filter plates were dried for 1 hour in a vacuum oven and 50 μl/well MicroScint-20 were added. Plates were counted 1 min per well by Packard Topcount. Total amount of radioligand used in the assay was determined by counting 25 μl of 10× ligand stock. […] Tau Ki data for representative compounds of the invention are found in Table 1.

tau, sequence (P10636 2-758 limits assumed): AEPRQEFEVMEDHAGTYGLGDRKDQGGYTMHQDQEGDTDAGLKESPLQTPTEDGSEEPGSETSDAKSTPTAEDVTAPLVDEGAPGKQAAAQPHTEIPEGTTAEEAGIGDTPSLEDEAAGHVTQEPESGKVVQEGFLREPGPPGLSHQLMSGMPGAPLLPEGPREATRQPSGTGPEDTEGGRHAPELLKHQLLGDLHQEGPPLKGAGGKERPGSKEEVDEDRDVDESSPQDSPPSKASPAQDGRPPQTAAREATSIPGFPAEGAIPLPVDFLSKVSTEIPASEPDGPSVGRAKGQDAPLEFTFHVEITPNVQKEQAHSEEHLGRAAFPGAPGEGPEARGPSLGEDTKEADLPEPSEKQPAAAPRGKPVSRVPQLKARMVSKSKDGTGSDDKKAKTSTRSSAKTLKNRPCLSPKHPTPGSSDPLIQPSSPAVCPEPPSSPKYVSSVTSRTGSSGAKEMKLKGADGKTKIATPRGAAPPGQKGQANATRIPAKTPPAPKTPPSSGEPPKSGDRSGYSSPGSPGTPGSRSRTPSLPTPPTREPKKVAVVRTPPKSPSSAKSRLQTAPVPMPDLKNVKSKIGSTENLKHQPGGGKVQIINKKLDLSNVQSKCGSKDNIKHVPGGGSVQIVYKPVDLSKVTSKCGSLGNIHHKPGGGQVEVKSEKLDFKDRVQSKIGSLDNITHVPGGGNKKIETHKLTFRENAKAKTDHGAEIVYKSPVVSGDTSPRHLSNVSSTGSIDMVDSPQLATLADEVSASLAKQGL

Row | SMILES | pKi
1 | CN(CCO)c1ccc2cnc(-n3ccc4ccncc43)cc2c1 [Compound 66] | 8.39
2 | FCCOc1cccc2cc(-n3ccc4ccncc43)ncc12 [Compound 67] | 8.17
3 | Fc1ccc2cnc(-n3ccc4ccncc43)nc2c1 [Compound 68] | 8.07
4 | Oc1ccc2cnc(-n3ccc4ccncc43)cc2c1 [Compound 75] | 9.32
5 | CNc1ccc(-c2ccc(-n3ccc4ccncc43)nc2)cn1 [Compound 88] | 9.16
6 | Fc1cccc(-c2ccc(-n3ccc4ccncc43)nc2)n1 [Compound 91] | 8.85
7 | CCNc1cc(-c2ccc(-n3ccc4ccncc43)nc2)ccn1 [Compound 94] | 8.85
8 | Nc1ccc(-c2ccc(-n3ccc4ccncc43)nc2)cn1 [Compound 100] | 8.97
9 | c1ccc(-c2ccc(-n3ccc4ccncc43)nc2)nc1 [Compound 101] | 8.94
10 | FCCn1ccc(-c2ccc(-n3ccc4ccncc43)nc2)n1 [Compound 104, 1-(5-(1-(2-fluoroethyl)-1H-pyrazol-3-yl)pyridin-2-yl)-1H-pyrrolo[2,3-c]pyridine] | 8.77

Now from value to compound:

Row | pKi | SMILES
11 | 8.55 | Cn1ccc(-c2ccc(-n3ccc4ccncc43)nc2)n1 [Compound 63]
12 | 8.50 | c1cnc(-c2ccc(-n3ccc4ccncc43)nc2)cn1 [Compound 64]
13 | 8.47 | Cn1cnc(-c2ccc(-n3ccc4ccncc43)nc2)c1 [Compound 65]
14 | 8.03 | FCCOc1ccc2nc(-n3ccc4ccncc43)ncc2c1 [Compound 69]
15 | 7.35 | COc1cccc2cnc(-n3ccc4ccncc43)cc12 [Compound 70]
16 | 6.76 | FCCOc1cccc2cnc(-n3ccc4ccncc43)cc12 [Compound 71]
17 | 9.12 | CNc1cccc(-c2ccc(-n3ccc4ccncc43)nc2)c1 [Compound 72]
18 | 9.28 | CNc1cc(-c2ccc(-n3ccc4ccncc43)nc2)ccn1 [Compound 93]
19 | 9.02 | CN(C)c1ccc(-c2ccc(-n3ccc4ccncc43)nc2)cn1 [Compound 95]
20 | 9.26 | Nc1cc(-c2ccc(-n3ccc4ccncc43)nc2)ccn1 [Compound 99]
21 | 9.49 | COc1cccc2cc(-n3ccc4ccncc43)ncc12 [Compound 103]

Same assay, conditions: Table 2, displacement of [^3H]-6 (0.25 nM)

Row | SMILES | pKi
22 | Nc1cc2cnc(-n3ccc4ccncc43)cc2cc1F [Compound 105, 6-fluoro-3-(1H-pyrrolo[2,3-c]pyridin-1-yl)isoquinolin-7-amine] | 9.42
23 | Nc1cccc2cnc(-n3ccc4cc(F)ncc43)cc12 [Compound 106] | 5.00
24 | Nc1c(F)ccc2cc(-n3ccc4ccncc43)ncc12 [Compound 110] | 8.67
25 | Nc1cc(F)cc2cc(-n3ccc4ccncc43)ncc12 [Compound 112] | 9.17
26 | Nc1cc(F)c2cnc(-n3ccc4ccncc43)cc2c1 [Compound 113] | 9.11
27 | Nc1ccc(F)c2cc(-n3ccc4ccncc43)ncc12 [Compound 117] | 8.70
28 | Nc1ccc2cnc(-n3ccc4ccncc43)cc2c1I [Compound 118] | 7.61
29 | Nc1c(I)ccc2cnc(-n3ccc4ccncc43)cc12 [Compound 119] | 9.36
30 | Nc1ccc2cc(-n3ccc4ccncc43)ncc2c1I [Compound 122] | 8.75
31 | Nc1ccc(I)c2cnc(-n3ccc4ccncc43)cc12 [Compound 123] | 6.68
32 | COc1cc2ccn(-c3cc4cc(F)ccc4cn3)c2cn1 [Compound 130] | 8.39

Now from value to compound:

Row | pKi | SMILES
33 | 5.00 | Nc1cccc2cnc(-n3ccc4ccnc(F)c43)cc12 [Compound 107]
34 | 9.17 | Nc1ccc2cc(-n3ccc4ccncc43)ncc2c1F [Compound 108]
35 | 9.37 | Nc1cc2cc(-n3ccc4ccncc43)ncc2cc1F [Compound 109]
36 | 8.96 | Nc1ccc2cnc(-n3ccc4ccncc43)cc2c1F [Compound 111]
37 | 9.31 | Nc1cc(F)c2cc(-n3ccc4ccncc43)ncc2c1 [Compound 114]
38 | 9.65 | Nc1cc(F)cc2cnc(-n3ccc4ccncc43)cc12 [Compound 115]
39 | 8.89 | Nc1ccc(F)c2cnc(-n3ccc4ccncc43)cc12 [Compound 116]
40 | 7.03 | Nc1ccc(I)c2cc(-n3ccc4ccncc43)ncc12 [Compound 120]
41 | 9.29 | Nc1c(I)ccc2cc(-n3ccc4ccncc43)ncc12 [Compound 121]
42 | 8.97 | Nc1cc(I)cc2cc(-n3ccc4ccncc43)ncc12 [Compound 124]
43 | 7.73 | Nc1cc(I)c2cnc(-n3ccc4ccncc43)cc2c1 [Compound 125]
44 | 9.75 | Nc1cc2cc(-n3ccc4ccncc43)ncc2cc1I [Compound 126]
45 | 8.93 | Nc1cc(I)cc2cnc(-n3ccc4ccncc43)cc12 [Compound 127]
46 | 8.21 | Nc1cc(I)c2cc(-n3ccc4ccncc43)ncc2c1 [Compound 128]

Source: patent publication US10022461B2, “Pyrrolo[2,3-C]pyridines as imaging agents for neurofibrilary tangles” (MERCK SHARP & DOHME CORP., priority 2014, dated 2018)
